Measurements published in patent US20230116114A1, “COMPOUNDS AND COMPOSITIONS FOR TREATING CNS DISORDERS” (Blue Oak Pharmaceuticals, Inc., priority 2020, published 2023).
Structures can show the parent of a compound that is named as a salt.

Test system: mice
Assay: SmartCube in vivo neuropharmacological behavioral assay
Conditions: for minimal effective dose: Mus musculus, ip, 0.25 h, dose having 50% or more total activity in SmartCube, i.p., read-out: MED (minimal effective dose); for AD: antidepressant (percent probability) / AG: analgesic (percent probability) / AP: antipsychotic (percent probability) / AX: anxiolytic (percent probability) / CE: cognitive enhancer (percent probability) / HA: hallucinogenic (percent probability) / MS: mood stabilizer (percent probability) / PS (percent probability) / SD: sedative hypnotic (percent probability) / SE: side effects (percent probability) / UN: uncharacterized CNS activity (percent probability) / XG: anxiogenic (percent probability): SmartCube, i.p. 15 min before test, result at the MED
Protocol: The compounds were evaluated for their CNS related properties (e.g., the treatment, prevention or diagnosis of CNS or CNS-related disorders and/or amelioration of symptoms) using neuropharmacological screening methods described in S. L. Roberts et al., Front. Neurosci. 2011, 5:103 (hereinafter referred to as “Roberts,” the contents of which are incorporated herein by reference in their entirety).
According to Roberts, intact systems are useful in detecting improvement in disease-relevant endpoints, because psychiatric diseases generally result from disorders of cell-cell communication or circuitry. The endpoints are typically behavioral in nature, often requiring human observation and interpretation. In order to test multiple compounds for behavioral effects relevant to neurological and psychiatric diseases and disorders, PsychoGenics, Inc. (Paramus, N.J. “PGI”) developed SmartCube®, an automated system in which behaviors of compound-treated mice are captured by digital video and analyzed with computer algorithms to facilitate testing of multiple compounds for behavioral effects relevant to psychiatric disease. (D. Brunner et al., Drug Discov. Today 2002, 7:S107-S112; Alexandrov et al., Eur. J. Pharmacol. 2015, 753:127-134; the contents of each of which are incorporated herein by reference in their entirety).
The SmartCube® system is described in Example 2.2 of U.S. Pat. No. 9,758,529 and Example 289 of WIPO Publication No. WO2018/023070, the contents of each of which are incorporated herein by reference in their entirety.
According to the present disclosure, compounds identified may be evaluated using the SmartCube® system. The results of such analysis correlate certain patterns or combinations of behaviors to CNS effects along a percent probability scale of 0-100 where zero (0) reflects the limit of quantitation (LOQ).
The compounds of the present disclosure were evaluated for their CNS related properties (e.g., the treatment, prevention or diagnosis of CNS or CNS-related disorders and/or amelioration of symptoms) using neuropharmacological screening methods described in S. L. Roberts et al., Front. Neurosci. 2011, 5:103 (hereinafter referred to as “Roberts,” the contents of which are incorporated herein by reference in their entirety).
The SmartCube® system described herein was utilized to compare the behavioral signature of a test compound to a database of behavioral signatures obtained using a large set of diverse reference compounds (including but not limited to antipsychotics, anxiolytics, antidepressants and bipolar disorder medicine), thereby predicting the neuropharmacological effects of a test compound by similarity to major classes of compounds. It produces an activity signature indicating the probability that the activity of the test compound at the administered dose matches a given class of neuropharmacological agents. The test compound is simultaneously compared against multiple classes of agents; thus, a separate probability is generated for each behavioral effect measured (such as but not limited to anxiolytic activity and analgesic activity).
The compounds of the present disclosure were dissolved in a mixture of Pharmasolve™ (N-methyl-2-pyrrolidone (NMP)) and were injected i.p. 15 min. before the behavioral test. For each compound, injections were administered at different dose levels (e.g., 0.3, 1, 3, 10 and 30 mg per kg (mpk)). A compound's minimal effective dose (MED; see Table 3) is a measure of the compound's potency. The MED was defined as the dose (in mpk) having 50% or more total activity in SmartCube®. For each behavioral effect measured, results at the MED are presented. CNS activities of the compounds were recorded (see Table 2). In Table 1, a key to the percent probabilities (probability ×100) for each behavioral effect (“X”) are defined provided, where LOQ is the limit of quantification.

| SMILES | minimal effective dose [mg/kg] | AD: antidepressant (percent probability) | AG: analgesic (percent probability) | AP: antipsychotic (percent probability) | AX: anxiolytic (percent probability) | CE: cognitive enhancer (percent probability) | HA: hallucinogenic (percent probability) | MS: mood stabilizer (percent probability) | PS (percent probability) | SD: sedative hypnotic (percent probability) | SE: side effects (percent probability) | UN: uncharacterized CNS activity (percent probability) | XG: anxiogenic (percent probability) |
| --- | --- | --- | --- | --- | --- | --- | --- | --- | --- | --- | --- | --- | --- |
| CC(C)C(C)N1C2CCCC1c1ccccc12 (stereo not drawn) [Compound 22, 12-(3-Methylbutan-2-yl)-12-azatricyclo[6.3.1.0^2,7]dodeca-2,4,6-triene hydrochloride] | 1 to 10 | ++ (5% ≤ X < 25%) | + (LOQ ≤ X < 5%) | + (LOQ ≤ X < 5%) | + (LOQ ≤ X < 5%) | + (LOQ ≤ X < 5%) | + (LOQ ≤ X < 5%) | + (LOQ ≤ X < 5%) | + (LOQ ≤ X < 5%) | + (LOQ ≤ X < 5%) | + (LOQ ≤ X < 5%) | ++++ (50% ≤ X < 100%) | + (LOQ ≤ X < 5%) |
| CCN1C2CCCC1c1ccccc12 [Compound 6, 12-Ethyl-12-azatricyclo[6.3.1.0,]dodeca-2,4,6-triene hydrochloride] | 10 to 30 | +++ (25% ≤ X < 50%) | ++ (5% ≤ X < 25%) | + (LOQ ≤ X < 5%) | ++ (5% ≤ X < 25%) | + (LOQ ≤ X < 5%) | + (LOQ ≤ X < 5%) | + (LOQ ≤ X < 5%) | + (LOQ ≤ X < 5%) | + (LOQ ≤ X < 5%) | + (LOQ ≤ X < 5%) | + (LOQ ≤ X < 5%) | + (LOQ ≤ X < 5%) |
| CC(C)N1C2CCC(F)C1c1ccccc12 (stereo not drawn) [Compound 35, 9-Fluoro-12-(propan-2-yl)-12-azatricyclo[6.3.1.0^2,7]dodeca-2,4,6-triene hydrochloride] | > 30 | + (LOQ ≤ X < 5%) | ++ (5% ≤ X < 25%) | + (LOQ ≤ X < 5%) | ++ (5% ≤ X < 25%) | + (LOQ ≤ X < 5%) | + (LOQ ≤ X < 5%) | + (LOQ ≤ X < 5%) | + (LOQ ≤ X < 5%) | + (LOQ ≤ X < 5%) | + (LOQ ≤ X < 5%) | + (LOQ ≤ X < 5%) | + (LOQ ≤ X < 5%) |
| c1ccc2c(c1)C1CCCC2N1C1CCOC1 (stereo not drawn) [Compound 9, 12-(Oxolan-3-yl)-12-azatricyclo[6.3.1.0^2,7]dodeca-2,4,6-triene hydrochloride] | 10 to 30 | +++ (25% ≤ X < 50%) | ++ (5% ≤ X < 25%) | + (LOQ ≤ X < 5%) | ++ (5% ≤ X < 25%) | + (LOQ ≤ X < 5%) | + (LOQ ≤ X < 5%) | + (LOQ ≤ X < 5%) | + (LOQ ≤ X < 5%) | + (LOQ ≤ X < 5%) | + (LOQ ≤ X < 5%) | ++ (5% ≤ X < 25%) | ++ (5% ≤ X < 25%) |
| CC[C@@H](C)N1C2CCCC1c1ccccc12 [Compound 25, 12-[(2R)-Butan-2-yl]-12-azatricyclo[6.3.1.0^2,7]dodeca-2,4,6-triene hydrochloride] | 1 to 10 | ++++ (50% ≤ X < 100%) | + (LOQ ≤ X < 5%) | + (LOQ ≤ X < 5%) | + (LOQ ≤ X < 5%) | + (LOQ ≤ X < 5%) | + (LOQ ≤ X < 5%) | + (LOQ ≤ X < 5%) | ++ (5% ≤ X < 25%) | + (LOQ ≤ X < 5%) | + (LOQ ≤ X < 5%) | + (LOQ ≤ X < 5%) | + (LOQ ≤ X < 5%) |
| CC(C)N1C2CCCC1c1ccccc12 [Compound 2, 12-(Propan-2-yl)-12-azatricyclo[6.3.1.0^2,7]dodeca-2,4,6-triene] | 1 to 10 | ++ (5% ≤ X < 25%) | ++ (5% ≤ X < 25%) | + (LOQ ≤ X < 5%) | + (LOQ ≤ X < 5%) | + (LOQ ≤ X < 5%) | + (LOQ ≤ X < 5%) | + (LOQ ≤ X < 5%) | + (LOQ ≤ X < 5%) | + (LOQ ≤ X < 5%) | + (LOQ ≤ X < 5%) | +++ (25% ≤ X < 50%) | + (LOQ ≤ X < 5%) |
| C[C@H]1CC[C@@H]2N[C@H]1c1ccccc12 (stereo in doubt) [Compound 32, 9-Methyl-12-azatricyclo[6.3.1.0^2,7]dodeca-2,4,6-triene hydrochloride] | 10 to 30 | + (LOQ ≤ X < 5%) | + (LOQ ≤ X < 5%) | + (LOQ ≤ X < 5%) | + (LOQ ≤ X < 5%) | + (LOQ ≤ X < 5%) | ++++ (50% ≤ X < 100%) | + (LOQ ≤ X < 5%) | ++ (5% ≤ X < 25%) | + (LOQ ≤ X < 5%) | + (LOQ ≤ X < 5%) | + (LOQ ≤ X < 5%) | + (LOQ ≤ X < 5%) |
| Fc1cc2c(cc1F)C1CCCC2N1 [Compound 40, 4,5-Difluoro-12-azatricyclo[6.3.1.0^2,7]dodeca-2,4,6-triene hydrochloride] | > 30 | ++ (5% ≤ X < 25%) | ++ (5% ≤ X < 25%) | + (LOQ ≤ X < 5%) | ++ (5% ≤ X < 25%) | + (LOQ ≤ X < 5%) | + (LOQ ≤ X < 5%) | + (LOQ ≤ X < 5%) | ++ (5% ≤ X < 25%) | + (LOQ ≤ X < 5%) | + (LOQ ≤ X < 5%) | + (LOQ ≤ X < 5%) | + (LOQ ≤ X < 5%) |
| c1ccc2c(c1)C1CCCC2N1C1CCC1 [Compound 10, 12-Cyclobutyl-12-azatricyclo[6.3.1.0^2,7]dodeca-2,4,6-triene hydrochloride] | 1 to 10 | ++++ (50% ≤ X < 100%) | ++ (5% ≤ X < 25%) | + (LOQ ≤ X < 5%) | ++ (5% ≤ X < 25%) | + (LOQ ≤ X < 5%) | ++ (5% ≤ X < 25%) | + (LOQ ≤ X < 5%) | ++ (5% ≤ X < 25%) | + (LOQ ≤ X < 5%) | + (LOQ ≤ X < 5%) | + (LOQ ≤ X < 5%) | + (LOQ ≤ X < 5%) |
